Legend:
[1] = molecular target: T1, MVP (Methanosarcina mazei, UniProt Q8PYZ8); test: colorimetric orthophosphate release; fit of MWC-derived Equation […]; type: biochemical; conditions: read-out: KR
T1 construct: gene hppA1; InvGFPMVP: N-terminal signal peptide of yeast Suc2p + yEGFP + MVP; stripped microsomal membranes of S. cerevisiae YPC6; homodimer

[2] = molecular target: T2, AVP1 (Arabidopsis thaliana, UniProt P31414); test: as above; type: biochemical; conditions: read-out: KR
T2 construct: InvGFPAVP1: N-terminal signal peptide of yeast Suc2p + yEGFP + AVP1; stripped microsomal membranes of S. cerevisiae YPC6; homodimer
T2 sequence (P31414 1-770): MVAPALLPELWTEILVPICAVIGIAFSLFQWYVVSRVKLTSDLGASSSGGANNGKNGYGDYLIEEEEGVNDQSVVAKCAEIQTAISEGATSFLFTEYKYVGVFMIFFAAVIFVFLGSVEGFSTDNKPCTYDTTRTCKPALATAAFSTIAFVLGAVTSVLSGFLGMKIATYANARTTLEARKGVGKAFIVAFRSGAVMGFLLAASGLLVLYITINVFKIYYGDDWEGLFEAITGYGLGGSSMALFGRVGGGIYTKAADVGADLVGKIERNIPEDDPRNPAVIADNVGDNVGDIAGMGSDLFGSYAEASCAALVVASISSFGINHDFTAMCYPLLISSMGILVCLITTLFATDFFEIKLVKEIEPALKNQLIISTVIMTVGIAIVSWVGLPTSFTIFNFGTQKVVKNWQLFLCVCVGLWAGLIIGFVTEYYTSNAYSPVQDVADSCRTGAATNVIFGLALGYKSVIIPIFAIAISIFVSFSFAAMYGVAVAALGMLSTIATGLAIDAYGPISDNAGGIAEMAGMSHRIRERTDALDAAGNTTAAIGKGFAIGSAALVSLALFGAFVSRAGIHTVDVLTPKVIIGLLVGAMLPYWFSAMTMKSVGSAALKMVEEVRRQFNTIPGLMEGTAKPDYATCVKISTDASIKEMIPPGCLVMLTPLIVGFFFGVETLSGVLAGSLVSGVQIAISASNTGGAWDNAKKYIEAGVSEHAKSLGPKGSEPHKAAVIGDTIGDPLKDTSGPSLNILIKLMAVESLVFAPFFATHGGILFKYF

T1 sequence (Q8PYZ8 whole entry): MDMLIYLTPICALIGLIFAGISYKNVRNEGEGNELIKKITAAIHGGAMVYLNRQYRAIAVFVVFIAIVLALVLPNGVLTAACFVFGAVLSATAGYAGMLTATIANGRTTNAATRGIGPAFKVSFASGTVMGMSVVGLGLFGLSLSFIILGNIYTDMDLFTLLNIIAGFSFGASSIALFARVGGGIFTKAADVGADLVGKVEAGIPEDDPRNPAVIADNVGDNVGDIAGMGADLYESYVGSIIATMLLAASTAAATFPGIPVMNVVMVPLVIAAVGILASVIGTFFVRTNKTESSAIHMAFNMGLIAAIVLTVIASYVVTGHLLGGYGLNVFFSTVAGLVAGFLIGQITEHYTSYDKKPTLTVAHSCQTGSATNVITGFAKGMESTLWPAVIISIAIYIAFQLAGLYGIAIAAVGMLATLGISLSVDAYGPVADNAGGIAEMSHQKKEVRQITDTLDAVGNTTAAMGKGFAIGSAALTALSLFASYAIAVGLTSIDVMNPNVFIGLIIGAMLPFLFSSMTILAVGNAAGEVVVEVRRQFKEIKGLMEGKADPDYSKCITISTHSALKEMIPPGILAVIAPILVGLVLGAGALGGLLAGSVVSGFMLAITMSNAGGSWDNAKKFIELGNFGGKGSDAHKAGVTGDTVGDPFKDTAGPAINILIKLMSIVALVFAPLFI

Kd [1]: 62 ± 8 µM | Kd [2]: 84 ± 9 µM
Compound: O=P(O)(O)OP(=O)(O)O [Mg2PPi]

Reference: article PMC7438732, “The H^+-Translocating Inorganic Pyrophosphatase From Arabidopsis thaliana Is More Sensitive to Sodium Than Its Na^+-Translocating Counterpart From Methanosarcina mazei” (Frontiers in Plant Science, 2020)
